Where “and” joins values, the source holds several entries; their conditions need not be identical. Equal entries are not always repeated. Where two headings read alike, the source gives them in different places.
Experiments:
[1] = biological target: T1, human 5HT transporter (L-S2 cells) (Homo sapiens, UniProt P31645); assay: [3H]-5-HT uptake by L-S2 cells; format: cell-based
T1 construct: expressed in transfected cells; host or cells: mouse L-M fibroblasts (ATCC CCL 1.2) transfected with total human genomic DNA and pSV2neo; clone L-S2
Method: (§1) L-S1 and L-M cells were preplated into 96-well culture plates. For uptake assays, the growth medium was removed from each well and the cells rinsed several times with oxygenated Ringer's buffer supplemented with 0.5 mM pargyline and 0.5 mM ascorbate. […] The radioligand was added to a final concentration of 0.1 μM and incubated with the cells at 37° C. for 40 minutes. The incubation mixture was then removed and each well was washed three times at room temperature with Ringer's buffer. The cells remaining in the wells were lysed with 1% sodium dodecyl sulphate (SDS) and transferred to counting vials containing 5 ml of ACS scintillant (Amersham), for liquid scintillation spectrometry. For each assay, 6-8 parallel sets of wells were assayed simultaneously.
(§2) Non-specific activity was determined from parallel assays carried out at 0° C. Initial velocities were calculated in terms of pmol/mg protein/min by subtracting velocity values obtained at 0° C. from those obtained at 37° C.
(§3) Cells were assayed in the presence of each inhibitor for 40 minutes at 37° C., washed with Ringer's buffer and prepared for counting as previously described. Five confluent wells were assayed at each inhibitor concentration. The IC50 value for each inhibitor was determined by plotting the percent activity against the logarithm of inhibitor concentration. Measured levels of uptake in the presence of inhibitors were expressed as the percentage of maximal uptake (100 %) in the absence of inhibitor.

[2] = tested on: Human Platelets; conditions: literature values; read-out: Representative IC50, Human Platelets; cited from earlier work
[3] = tested on: Rat Synaptosomes; conditions: literature values; read-out: Representative IC50, Rat Synaptosomes; cited from earlier work
[4] = biological target: T2, human 5HT transporter (L-S1 cells) (Homo sapiens, UniProt P31645); assay: [3H]-5-HT uptake by L-S1 cells; format: cell-based
T2 construct: expressed in transfected cells; host or cells: mouse L-M fibroblasts (ATCC CCL 1.2) transfected with total human genomic DNA and pSV2neo; clone L-S1
Method: The cells were incubated at 37° C. for an additional 40 min.
as §1, with “[…] […]” for “The radioligand was added to a final concentration of 0.1 μM and incubated with the cells at 37° C. for 40 minutes. The incubation mixture was then removed and each well was washed three times at room temperature with Ringer's buffer.”
as §2, §3

[5] = tested on: neuronal and glial GABA uptake systems in the CNS; conditions: literature, cited from earlier work; for IC50: neuronal and glial uptake systems, read-out: IC50, high-affinity GABA uptake in the CNS
[6] = tested on: GABA transporter (L-GAB1 cells); assay: [3H]GABA uptake by L-GAB1 cells; format: cell-based, human; conditions: for inhibition of total [3H]GABA uptake by L-GAB1 cells: effect saturating by 100 μM; for effect of GABA uptake inhibitors on [3H]GABA uptake by L-GAB1 cells: inhibitor 1 to 100 μM
Method: Using concentrations of [^3 H] GABA ranging from 2 to 500 μM, the kinetic profile of GABA uptake was determined for both L-GAB1 and L-M cells. The initial velocity of GABA uptake was measured and plotted against the corresponding [^3 H] GABA concentration for both cell lines. […] The velocity profile for L-GAB1 cells was subtracted by that of L-M cells, and the resulting data used for a double-reciprocal plot of velocity-^1 against GABA concentration-^1. The velocity profile for L-M cells was also transformed into a double-reciprocal plot.
Several known inhibitors of high-affinity GABA uptake were used to examine their efficacies in inhibiting [^3 H] GABA uptake by L-GAB1 cells. […] Each of these agents was used at several concentrations ranging from 1 to 100 μM in assays of [^3 H] GABA uptake by L-GAB1 cells. […] GABA uptake by L-GAB1 cells.
L-GAB1 cells were also analyzed in terms of their ligand-specificity in the high-affinity GABA uptake mechanism.

[7] = tested on: Cultured Astrocytes (rat); conditions: read-out: Representative IC50, Cultured Astrocytes (rat); literature values; cited from earlier work
[8] = tested on: T3, NCCc1c[nH]c2ccc(O)cc12; assay: [3H]-5-HT uptake by L-S2 cells; format: cell-based, human; conditions: other: 10 min, 37° C. minus 0° C., Lineweaver-Burk
T3 construct: expressed in transfected cells; host or cells: mouse L-M fibroblasts (ATCC CCL 1.2) transfected with total human genomic DNA and pSV2neo; clone L-S2

[9] = tested on: L-M cells; assay: [3H]-5-HT uptake by untransfected L-M cells; format: cell-based, mouse
Method: as §1, with “For each assay, 6-8 parallel sets of wells were assayed simultaneously.” left out
as §2
as §3, with “Five confluent wells were assayed at each inhibitor concentration.” left out

[10] = tested on: human L-glutamate transporter (L-Glul cells); assay: L-[3H]glutamate uptake by L-Glul cells; format: cell-based; conditions: unlabelled neurotransmitters, EAA receptor ligands, co-transporter inhibitors
Method: Both L-Glul and L-M cells were assessed for their kinetic properties of [^3 H] Glu uptake, and the results were analyzed by fitting to Michaelis-Menten kinetics. This was done by incubating cells with differing concentrations of [^3 H] Glu (ranging from 0.05 to 2 μM) for 10 minutes, at both 37° C. and 0° C. The amount of [^3 H] Glu retained by the cells following incubation was then quantitated and converted (using the manufacturer's specific activity for [^3 H] Glu to the corresponding picomole-equivalent of the radioligand, for each concentration of radioligand at each temperature. Then, the pmol value is normalized by the length of incubation and the amount of protein corresponding to the number of cells assayed. The resulting value, expressed in units of pmol/min/mg protein, is the initial velocity value for each concentration of [^3 H] Glu at each temperature. The initial velocity measured at 37° C. represents total initial velocity; the initial velocity measured at 0° C. represents nonspecific initial velocity. The difference between these two velocity values is then the specific initial velocity, denoted by "V", for each concentration of [^3 H] Glu.
Various drugs specific for excitatory amino acid (EAA) receptor subtypes were assessed for their effects on [^3 H] Glu uptake by L-Glul cells.
Glu uptake by L-Glul cells.

[11] = tested on: Rabbit Platelets; conditions: read-out: Representative IC50, Rabbit Platelets; literature value; cited from earlier work
[12] = tested on: T4, NCCc1c[nH]c2ccc(O)cc12; assay: [3H]-5-HT uptake by L-S1 cells; format: cell-based, human; conditions: other: 10 min, 37° C. minus 0° C., Lineweaver-Burk
T4 construct: expressed in transfected cells; host or cells: mouse L-M fibroblasts (ATCC CCL 1.2) transfected with total human genomic DNA and pSV2neo; clone L-S1

[13] = tested on: L-M cells; conditions: 2 to 500 μM [3H]GABA, low-affinity system
[14] = tested on: Synaptosomes; conditions: literature values; read-out: Representative IC50, Synaptosomes; cited from earlier work
[15] = tested on: Purified Synaptosomes; conditions: literature value, reference printed beside it; read-out: Representative IC50, Purified Synaptosomes; cited from earlier work
[16] = ligand 10 μM, 10 min preincubation, 0.1 μM [3H]-5HT, 40 min, 37° C. (FIG. 1)

T2 sequence (P31645 whole entry): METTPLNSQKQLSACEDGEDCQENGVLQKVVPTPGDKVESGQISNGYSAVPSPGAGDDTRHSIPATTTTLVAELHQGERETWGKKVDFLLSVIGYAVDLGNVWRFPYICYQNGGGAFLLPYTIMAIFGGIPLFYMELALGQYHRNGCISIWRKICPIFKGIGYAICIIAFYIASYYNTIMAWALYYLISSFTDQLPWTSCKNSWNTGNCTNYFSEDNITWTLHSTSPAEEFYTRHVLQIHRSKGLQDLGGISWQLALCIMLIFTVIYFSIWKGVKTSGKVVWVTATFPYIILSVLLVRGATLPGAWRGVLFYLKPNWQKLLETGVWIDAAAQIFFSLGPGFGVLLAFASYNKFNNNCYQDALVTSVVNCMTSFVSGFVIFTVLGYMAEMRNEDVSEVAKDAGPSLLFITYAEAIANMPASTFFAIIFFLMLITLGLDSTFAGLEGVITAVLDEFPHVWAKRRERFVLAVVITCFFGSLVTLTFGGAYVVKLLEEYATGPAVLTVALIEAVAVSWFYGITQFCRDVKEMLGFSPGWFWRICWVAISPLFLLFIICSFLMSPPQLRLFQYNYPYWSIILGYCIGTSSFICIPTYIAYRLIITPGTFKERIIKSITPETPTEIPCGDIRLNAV
T1 sequence (P31645 whole entry): as above

Compound: NCCc1c[nH]c2ccccc12 [Tryptamine, tryptamine]
- IC50 [1]: 900 nM
- IC50 [2]: 2700 nM
- IC50 [3]: 2800 nM
- IC50 [4]: 130 nM

Compound: NCCC(N)C(=O)O (stereo not shown) [DABA, 2,4-diaminobutyric acid]
- IC50 [5]: 10000 to 200000 nM
- inhibition of total [3H]GABA uptake by L-GAB1 cells [6]: less than 20%
- effect of GABA uptake inhibitors on [3H]GABA uptake by L-GAB1 cells [6]: some effect

Compound: O=C(O)C1CCCNC1 (racemic) [NA, (±)nipecotic acid]
- IC50 [5]: 10000 to 200000 nM
- inhibition of total [3H]GABA uptake by L-GAB1 cells [6]: less than 20%
- effect of GABA uptake inhibitors on [3H]GABA uptake by L-GAB1 cells [6]: some effect

Compound: CNCCCN1c2ccccc2CCc2ccccc21 [Desipramine, desipramine]
- IC50 [7]: 620 nM

Compound: human 5HT transporter (L-S2 cells) (Homo sapiens)
- Km [8]: 0.234 ± 0.027 µM
- Vmax [8]: 1.33 ± 0.13 pmol/mg/min

Compound: NCCc1c[nH]c2ccc(O)cc12 [5-HT, serotonin]
- effect of excess unlabelled 5-HT on [3H]5-HT uptake, L-S2 ([1]; kinetic assay, Lineweaver-Burk): significantly inhibited
- effect of competing ligand on [3H]-5HT uptake, L-S2 [1, 16]: significantly inhibited
- IC50 [3]: 150 nM
- effect on 5-HT uptake activity of untransfected L-M cells [9]: unaffected
- effect on [3H]Glu uptake by L-Glul cells [10]: only unlabelled L-glutamate seems to mediate some inhibition
- effect of excess unlabelled 5-HT on [3H]5-HT uptake, L-S1 ([4]; kinetic assay, Lineweaver-Burk): significantly inhibited
- effect of competing ligand on [3H]-5HT uptake, L-S1 [4, 16]: significantly inhibited

Compound: CNCCC=C1c2ccccc2CCc2ccccc21 [Nortriptyline, nortriptyline]
- IC50 [11]: 900 nM

Compound: human 5HT transporter (L-S1 cells) (Homo sapiens)
- Km [12]: 0.390 ± 0.096 µM
- Vmax [12]: 2.14 ± 0.55 pmol/mg/min

Compound: c1ccc2c3c([nH]c2c1)CNCC3 [Tryptoline]
- IC50 [1]: 8000 nM
- inhibition of [3H]-5-HT uptake in words, L-S2 [1]: relatively ineffective
- IC50 [2]: 3800 nM
- IC50 [3]: 2500 nM
- IC50 [4]: 4000 nM
- inhibition of [3H]-5-HT uptake in words, L-S1 [4]: relatively ineffective

Compound: CN(C)CCC=C1c2ccccc2CCc2ccccc21 [Amitriptyline, amitriptyline]
- IC50 [7]: 140 nM

Compound: NCCCC(=O)O [GABA, γ-aminobutyric acid]
- Km ([5]; read-out: Km of high-affinity GABA transport systems in the CNS): < 25 µM and 50 to 100 µM
- transport Vmax of GABA, additional component in L-GAB1 cells ([6]; 2 to 500 μM [3H]GABA, L-M profile subtracted): 2.4 pmol/min/mg protein
- Km ([6]; 2 to 500 μM [3H]GABA, L-M profile subtracted, read-out: transport Km of GABA, additional component in L-GAB1 cells): 110 µM
- transport Vmax of GABA, system common to L-M and L-GAB1, L-GAB1 cells ([6]; 2 to 500 μM [3H]GABA, low-affinity system): 2.1 pmol/min/mg protein
- Km ([6]; 2 to 500 μM [3H]GABA, low-affinity system, read-out: transport Km of GABA, system common to L-M and L-GAB1, L-GAB1 cells): 697 µM
- transport Vmax of GABA, L-M cells [13]: 2.1 pmol/min/mg protein
- Km ([13]; read-out: transport Km of GABA, L-M cells): 697 µM

Compound: O=C(O)C1=CCCNC1 [Guvacine]
- IC50 [5]: 10000 to 200000 nM
- effect of GABA uptake inhibitors on [3H]GABA uptake by L-GAB1 cells [6]: without measurable effect

Compound: CN(C)CCCN1c2ccccc2CCc2ccccc21 [Imipramine, imipramine]
- IC50 [14]: 100 nM
- effect of competing ligand on [3H]-5HT uptake, L-S2 [1]: significantly inhibited
- mechanism of inhibition of 5-HT uptake, L-S2 [1]: competitive inhibition
- effect on 5-HT uptake activity of untransfected L-M cells [9]: unaffected
- IC50 [7]: 140 nM
- IC50 [15]: 210 nM
- effect of competing ligand on [3H]-5HT uptake, L-S1 [4]: significantly inhibited

Reference: patent US5424185A, “Human high-affinity neurotransmitter uptake system” (Baylor College of Medicine, priority 1990, dated 1995)
